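Assay format: 96-well plates, 48-hour exposure. GI50 = concentration required for 50% inhibition of growth. TGI is the concentration that stops growth completely.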
How the values were obtained:
Experiment in all cases: NCI anticancer screen, dose series, 48 h
COLO 205 colon = tested on: COLO 205 colon
SW-620 colon = tested on: SW-620 colon
M14 melanoma = tested on: M14 melanoma
786-0 renal = tested on: 786-0 renal
OVCAR-5 ovarian = tested on: OVCAR-5 ovarian
K-562 leukemia = tested on: K-562 leukemia
HCT-15 colon = tested on: HCT-15 colon
EKVX NSCLC = tested on: EKVX NSCLC
RPMI-8226 leukemia = tested on: RPMI-8226 leukemia
NCI-H522 lung = tested on: NCI-H522 lung
HS 578T breast = tested on: HS 578T breast
NCI-H23 lung = tested on: NCI-H23 lung
RXF 393 renal = tested on: RXF 393 renal
OVCAR-4 ovarian = tested on: OVCAR-4 ovarian
CAKI-1 renal = tested on: CAKI-1 renal
NCI/ADR-RES ovarian = tested on: NCI/ADR-RES ovarian
T-47D breast = tested on: T-47D breast
SF-268 CNS = tested on: SF-268 CNS
CCRF-CEM leukemia = tested on: CCRF-CEM leukemia
SK-MEL-28 melanoma = tested on: SK-MEL-28 melanoma
SK-MEL-2 melanoma = tested on: SK-MEL-2 melanoma
UACC-257 melanoma = tested on: UACC-257 melanoma
ACHN renal = tested on: ACHN renal
SF-295 CNS = tested on: SF-295 CNS
MCF7 breast = tested on: MCF7 breast
SNB-75 CNS = tested on: SNB-75 CNS
MDA-MB-231 breast = tested on: MDA-MB-231 breast
A549 NSCLC = tested on: A549 NSCLC

## CCCCNNC(=O)c1ccc(-c2cccc(F)c2F)cc1
COLO 205 colon
  GI50: 1.82 µM
  TGI: 5.56 µM
SW-620 colon
  GI50: 2.92 µM
  TGI: 12.5 µM
M14 melanoma
  GI50: 2.93 µM
  TGI: 20.8 µM
786-0 renal
  GI50: 3.75 µM
  TGI: 18.9 µM
OVCAR-5 ovarian
  GI50: 2.02 µM
  TGI: 16.7 µM
K-562 leukemia
  GI50: 1.29 µM
  TGI: > 100 µM
HCT-15 colon
  GI50: 3.08 µM
  TGI: 17 µM
EKVX NSCLC
  GI50: 3.32 µM
  TGI: 56.3 µM
RPMI-8226 leukemia
  GI50: 0.8 µM
  TGI: 7.88 µM
NCI-H522 lung
  GI50: 2.3 µM
  TGI: 20.7 µM
HS 578T breast
  GI50: 2.44 µM
  TGI: 82.4 µM
NCI-H23 lung
  GI50: 2.39 µM
  TGI: 18.2 µM
RXF 393 renal
  GI50: 1.31 µM
  TGI: 3.67 µM
OVCAR-4 ovarian
  GI50: 4.03 µM
  TGI: > 100 µM
CAKI-1 renal
  GI50: 2.76 µM
  TGI: 6.02 µM
NCI/ADR-RES ovarian
  GI50: 0.999 µM
  TGI: 6.67 µM
T-47D breast
  GI50: 1.14 µM
  TGI: > 100 µM
SF-268 CNS
  GI50: 4.26 µM
  TGI: 18.7 µM
CCRF-CEM leukemia
  GI50: 3.08 µM
  TGI: > 100 µM
SK-MEL-28 melanoma
  GI50: 2.75 µM
  TGI: 63.7 µM
SK-MEL-2 melanoma
  GI50: 3.1 µM
  TGI: 53.6 µM
UACC-257 melanoma
  GI50: 1.39 µM
  TGI: 31.3 µM
ACHN renal
  GI50: 2.3 µM
  TGI: 7.06 µM
SF-295 CNS
  GI50: 2 µM
  TGI: 4.78 µM
MCF7 breast
  GI50: 0.776 µM
  TGI: 17.5 µM
SNB-75 CNS
  GI50: 0.894 µM
  TGI: 8.29 µM
MDA-MB-231 breast
  GI50: 5.49 µM
  TGI: 34.3 µM
A549 NSCLC
  GI50: 3.36 µM
